{"source": "paper PMC6017655", "about": "“In Silico and in Vitro-Guided Identification of Inhibitors of Alkylquinolone-Dependent Quorum Sensing in Pseudomonas aeruginosa” (Molecules : A Journal of Synthetic Chemistry and Natural …, 2018)", "key": {"PA14 biofilms": {"system": "PA14 biofilms", "test": "Biofilm assay on glass coverslips, GFP-labelled PA14", "type": "cell-based, Pseudomonas aeruginosa", "method": "(§1) One of the clinical challenges of P. aeruginosa infections is the difficulty associated with the effective treatment of biofilms due to their high resistance to antibiotics. […] The effect of Ia, with or without tobramycin, on PA14 and PAO1-L biofilms grown on glass coverslips, was determined. […] The experiment was performed using green fluorescent labelled (GFP)-labelled PAO1-L and PA14 strains, grown under four different conditions: (i) no treatment (control); (ii) compound Ia at 8 µM in PA14 and 34 µM in PAO1-L (concentrations equal to 3× IC50); (iii) tobramycin at 100 µg/mL; (iv) Ia and tobramycin, at the same concentrations as (ii) and (iii).\n(§2) Biofilms were cultivated on borosilicate glass coverslips in petri dishes. P. aeruginosa strains, PAO1-L and PA14, were labelled by transformation with plasmid pMMG, which constitutively expresses GFP from the Ptac promoter. Labelled strains were grown at 37 °C, for 16 h, in 2 mL RPMI-1640 (Lonza, Slough, UK), supplemented with 20 mM D-glucose (Sigma–Aldrich, Dorset, UK) and 2 µM FeCl3 (Sigma–Aldrich, Dorset, UK). Cultures were diluted 1:100 in fresh medium and allowed to grow for a further 4 h, or until an OD600 of 0.5 was reached. The mid-logarithmic cultures were diluted to an OD600 of 0.01 in 25 mL RPMI, supplemented with glucose and FeCl3, and inoculated into petri dishes containing UV sterilised borosilicate glass coverslips (22 × 22 mm, thickness no1) (VWR, Lutterworth, UK). Bacterial cells were seeded at 37 °C under static conditions for 1.5 h, and compound Ia was added to the culture at a concentration of 34 µM for P. aeruginosa PAO1-L and 8 µM for PA14 before dishes were moved to a shaker at 60 rpm and 37 °C for 15 h to form mature biofilms. Tobramycin and propidium iodide were added to the 15 h-old cultures at concentrations of 100 µg/mL and 2 µM, respectively, followed by further incubation for 4 h. Coverslips were examined under a Laser Scanning Fluorescent Microscope (LSM2, Zeiss, Oberkochen, Germany). Biofilms were visualised using egfp mode at an excitation wavelength of 488nm. Imaging was carried out using Zen 2011 imaging software (Zeiss, Oberkochen, Germany). A total of 5 Z-stacked images were collected per coverslip. Sampling was conducted at random from the central portion of each coverslip. Biomass was calculated using Image J (NIH, Bethesda, MD, USA) and Comstat 2.1. Software package (www.comstat.dk, lyngby, Denmark)."}, "PAO1-L biofilms": {"system": "PAO1-L biofilms", "test": "Biofilm assay on glass coverslips, GFP-labelled PAO1-L", "type": "cell-based, Pseudomonas aeruginosa", "method": "as §1, §2"}, "[1]": {"settings": "Ia 8 µM, tobramycin 100 µg/mL for 4 h"}, "[2]": {"settings": "Ia 34 µM, tobramycin 100 µg/mL for 4 h"}}, "data": [{"compound": "O=CN1N=C(c2ccccc2)CC1c1cccc(Nc2ccnc3cc(Cl)ccc23)c1", "note": "(stereo not drawn) [Ia]", "values": [{"measurement": "Sensitisation of biofilm to tobramycin / effect of combined treatment, PA14", "setting": "PA14 biofilms; Ia 8 µM plus tobramycin 100 µg/mL for 4 h", "value": "sensitized the biofilm to tobramycin"}, {"measurement": "Effect on biofilm biomass, PA14", "setting": "PA14 biofilms; [1]", "value": "reducing biomass"}, {"measurement": "Effect on cell viability in biofilm (propidium iodide), PA14", "setting": "PA14 biofilms; [1]", "value": "little impact on cell viability"}, {"measurement": "Sensitisation of biofilm to tobramycin / effect of combined treatment, PAO1-L", "setting": "PAO1-L biofilms; Ia 34 µM plus tobramycin 100 µg/mL for 4 h", "value": "sensitized the biofilm to tobramycin"}, {"measurement": "Effect on biofilm biomass, PAO1-L", "setting": "PAO1-L biofilms; [2]", "value": "reducing biomass"}, {"measurement": "Effect on cell viability in biofilm (propidium iodide), PAO1-L", "setting": "PAO1-L biofilms; [2]", "value": "little impact on cell viability"}]}]}
